Laboratory results: the supplement of paper PMC10307832

Experiments:
Assay in all cases: relative viability (nuclei count vs DMSO), 5 days (fraction); higher = more cells survive
Sorafenib + Foretinib = compound: CNC(=O)c1cc(Oc2ccc(NC(=O)Nc3ccc(Cl)c(C(F)(F)F)c3)cc2)ccn1 [Sorafenib] + COc1cc2c(Oc3ccc(NC(=O)C4(C(=O)Nc5ccc(F)cc5)CC4)cc3F)ccnc2cc1OCCCN1CCOCC1 [Foretinib] (partner 0.25 µM)
How it was run: (§1)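 A single step with final 0.05% Triton X-100, 1% formaldehyde and 1 ug/ml Hoechst fixed the cells and stained nuclei 5 days after treatment. Lung cancer cell lines in 1536-well plates had been treated by pin tool the day after seeding with one drug alone or a fixed anchor-drug dose plus five library-drug doses (not always all listed) in √10 steps, and nuclei were counted on 4× images. Relative viability is the ratio of nuclei in treated wells to nuclei in vehicle wells, taken as the median of duplicate plates.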

Sorafenib + Linsitinib = compound: CNC(=O)c1cc(Oc2ccc(NC(=O)Nc3ccc(Cl)c(C(F)(F)F)c3)cc2)ccn1 [Sorafenib] + C[C@]1(O)C[C@@H](c2nc(-c3ccc4ccc(-c5ccccc5)nc4c3)c3c(N)nccn32)C1 [Linsitinib] (partner 1 µM)
How it was run: as §1

Sorafenib + Tozasertib = compound: CNC(=O)c1cc(Oc2ccc(NC(=O)Nc3ccc(Cl)c(C(F)(F)F)c3)cc2)ccn1 [Sorafenib] + Cc1cc(Nc2cc(N3CCN(C)CC3)nc(Sc3ccc(NC(=O)C4CC4)cc3)n2)n[nH]1 [Tozasertib] (partner 0.1 µM)
How it was run: as §1

Sorafenib + AZD7762 = compound: CNC(=O)c1cc(Oc2ccc(NC(=O)Nc3ccc(Cl)c(C(F)(F)F)c3)cc2)ccn1 [Sorafenib] + NC(=O)Nc1cc(-c2cccc(F)c2)sc1C(=O)N[C@H]1CCCNC1 [AZD7762] (partner 0.2 µM)
How it was run: as §1

Sorafenib + Olaparib = compound: CNC(=O)c1cc(Oc2ccc(NC(=O)Nc3ccc(Cl)c(C(F)(F)F)c3)cc2)ccn1 [Sorafenib] + O=C(c1cc(Cc2n[nH]c(=O)c3ccccc23)ccc1F)N1CCN(C(=O)C2CC2)CC1 [Olaparib] (partner 8 µM)
How it was run: as §1

| Cell Line | relative viability (Sorafenib + Foretinib; first compound 0.08 µM) | relative viability (Sorafenib + Foretinib; first compound 0.253 µM) | relative viability (Sorafenib + Foretinib; first compound 2.53 µM) | relative viability (Sorafenib + Foretinib; first compound 8 µM) | relative viability (Sorafenib + Linsitinib; first compound 0.08 µM) | relative viability (Sorafenib + Linsitinib; first compound 0.253 µM) | relative viability (Sorafenib + Linsitinib; first compound 2.53 µM) | relative viability (Sorafenib + Linsitinib; first compound 8 µM) | relative viability (Sorafenib + Tozasertib; first compound 0.08 µM) | relative viability (Sorafenib + Tozasertib; first compound 0.253 µM) | relative viability (Sorafenib + Tozasertib; first compound 2.53 µM) | relative viability (Sorafenib + Tozasertib; first compound 8 µM) | relative viability (Sorafenib + AZD7762; first compound 0.08 µM) | relative viability (Sorafenib + AZD7762; first compound 0.253 µM) | relative viability (Sorafenib + AZD7762; first compound 2.53 µM) | relative viability (Sorafenib + AZD7762; first compound 8 µM) | relative viability (Sorafenib + Olaparib; first compound 0.08 µM) | relative viability (Sorafenib + Olaparib; first compound 0.253 µM) | relative viability (Sorafenib + Olaparib; first compound 2.53 µM) | relative viability (Sorafenib + Olaparib; first compound 8 µM) |
| --- | --- | --- | --- | --- | --- | --- | --- | --- | --- | --- | --- | --- | --- | --- | --- | --- | --- | --- | --- | --- |
| HCC-827 | 1.1 | 0.981 | 1.02 | 1.02 | 0.934 | 0.88 | 0.986 | 0.851 | 0.423 | 0.471 | 0.421 | 0.45 | 0.211 | 0.207 | 0.215 | 0.161 | 0.621 | 0.623 | 0.572 | 0.464 |
| HOP-62 | 1.05 | 0.916 | 0.749 | 0.676 | 1.14 | 0.839 | 0.781 | 0.49 | 0.431 | 0.331 | 0.338 | 0.155 | – | 0.567 | 0.405 | 0.207 | 0.28 | 0.389 | 0.405 | 0.249 |
| IA-LM | – | 0.624 | 0.61 | 0.757 | 0.456 | 0.281 | 0.373 | 0.436 | – | – | – | – | – | – | – | – | 0.65 | 0.601 | 0.51 | 0.43 |
| LC-2-ad | 0.923 | 0.989 | 0.985 | 0.744 | 0.935 | 0.798 | 0.673 | 0.659 | 0.405 | 0.478 | 0.478 | 0.462 | 0.942 | 0.86 | 0.967 | 0.769 | 0.738 | 0.768 | 0.751 | 0.655 |
| LCLC-97TM1 | 0.959 | 0.837 | 0.897 | 0.926 | 0.224 | 0.161 | 0.153 | 0.184 | 0.191 | 0.232 | 0.195 | 0.188 | 0.311 | 0.139 | 0.229 | 0.214 | 0.413 | 0.324 | 0.297 | 0.253 |
| NCI-H520 | 0.71 | 0.71 | 0.736 | 0.406 | 1.01 | 0.905 | 0.919 | 0.307 | 0.517 | 0.436 | 0.432 | 0.331 | – | – | – | – | 0.356 | 0.281 | 0.313 | 0.126 |
| NCI-H661 | 1.03 | 0.986 | – | 0.701 | 0.816 | 0.57 | 0.55 | 0.417 | 0.35 | 0.378 | 0.333 | – | – | – | – | – | 0.726 | 0.764 | 0.679 | 0.444 |
| NCI-H1563 | 0.992 | 0.929 | 0.943 | 0.577 | 1.08 | 1.41 | 1.21 | 1.16 | – | – | – | – | – | – | – | – | – | – | – | – |
| NCI-H1650 | 1.43 | 1.24 | 1.32 | 0.365 | – | – | – | – | 0.397 | 0.39 | 0.361 | 0.257 | – | – | – | – | 0.684 | 0.741 | 0.707 | 0.643 |
| NCI-H1703 | 0.384 | 0.283 | 0.298 | 0.278 | 0.642 | 0.336 | 0.142 | 0.179 | – | – | – | – | 0.125 | 0.133 | 0.134 | 0.106 | 0.317 | 0.27 | 0.194 | 0.192 |
